This is an account of results in ChEMBL document CHEMBL1201862, “PubChem BioAssay data set” (2004).

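96-well plates; 48 h exposure; 5 concentrations. Endpoints by linear interpolation between flanking doses. Not reached: highest tested concentration assigned. GI50 is the concentration that inhibits growth by half.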 Activity calls are given as the source filed them. Rule as the data show it: active = GI50 up to about 1.1 µM and inactive = higher.

Some test systems named below: 786-0; A498; ACHN; HL-60; HOP-62; HOP-92; HT-29; IGROV-1; KM12; MCF7; NCI-H23; OVCAR-5; OVCAR-8; PC-3; SF-539; SK-MEL-2; SK-OV-3; SW-620; U-251; MDA-N.
What all share (test): NCI anticancer screen, dose series, 48 h

Regarding `CCOC(=O)C1(Cc2c[nH]c3ccccc23)C(O)CCCN1C(C)=O` (centres undefined), the GI50 with 786-0, in the assay with A498, with ACHN, in the assay on HL-60, in the assay with HOP-62 and in the assay on HOP-92 was > 100 µM (inactive) each time. In addition, the GI50 with HT-29, with IGROV-1, in the assay with KM12, in the assay with MCF7, in the assay with NCI-H23 and in the assay on OVCAR-5 was > 100 µM (inactive) throughout. Also, the GI50 in the assay on OVCAR-8, with PC-3, with SF-539, in the assay with SK-MEL-2, in the assay on SK-OV-3 and with SW-620 was > 100 µM (inactive) throughout. Also, the GI50 in the assay with U-251 is > 100 µM (inactive).
For the compound `O=C(Nc1ccccc1)N1CCN(C(=O)Nc2ccccc2)C1=S`, the GI50 was 37 µM (inactive) in the assay on 786-0; 0.0652 µM (active) in the assay with A498; 8.57 µM (inactive) in the assay with ACHN; 29.3 µM (inactive) in the assay on HL-60; 25.2 µM (inactive) in the assay on HOP-62; 29 µM (inactive) in the assay with HOP-92. In addition, the GI50 in the assay on HT-29 is > 100 µM (inactive); with IGROV-1, 49 µM (inactive); in the assay with KM12, > 100 µM (inactive); with MDA-N it was > 100 µM (inactive); with NCI-H23, 22.3 µM (inactive); in the assay with OVCAR-8, 34.6 µM (inactive). In addition, the GI50 in the assay on SF-539 is 18.5 µM (inactive); in the assay on SK-MEL-2, > 100 µM (inactive); in the assay on SK-OV-3, 28.6 µM (inactive); in the assay on SW-620, > 100 µM (inactive); in the assay with U-251, > 100 µM (inactive).
Regarding `Fc1ccc(Oc2nc3ccccc3nc2-c2ccccc2)cc1`, the GI50 in the assay on 786-0 is 80 µM (inactive); with A498 it was > 100 µM (inactive); in the assay on ACHN, > 100 µM (inactive); with HL-60 it was 13.9 µM (inactive); in the assay on HOP-62, 88.9 µM (inactive); in the assay with HOP-92 it was 76.9 µM (inactive). The GI50 in the assay on HT-29 is > 100 µM (inactive); in the assay with IGROV-1, > 100 µM (inactive); with KM12 it was > 100 µM (inactive); in the assay with MCF7, > 100 µM (inactive); with NCI-H23, 42.5 µM (inactive); in the assay with OVCAR-5 it was > 100 µM (inactive). Besides, the GI50 was > 100 µM (inactive) in the assay on PC-3; > 100 µM (inactive) in the assay with SK-MEL-2; > 100 µM (inactive) with SK-OV-3; > 100 µM (inactive) with SW-620; 50.5 µM (inactive) in the assay on U-251.
For the compound `Nc1ccccc1SCc1csc(-c2ccc(Cl)cc2)n1`, the GI50 was 19.9 µM (inactive) with 786-0; 23.3 µM (inactive) with A498; 25.6 µM (inactive) in the assay with ACHN; 3.52 µM (inactive) with HL-60; 30.3 µM (inactive) in the assay on HOP-62; 21.9 µM (inactive) with HOP-92. Besides, the GI50 in the assay on HT-29 is 23.6 µM (inactive); in the assay on IGROV-1, 23 µM (inactive); in the assay with KM12, 20 µM (inactive); with MCF7, 23.8 µM (inactive); in the assay with NCI-H23, 24.7 µM (inactive); in the assay on OVCAR-5, 39.1 µM (inactive). In addition, the GI50 in the assay with OVCAR-8 is 30.5 µM (inactive); with PC-3, 19.8 µM (inactive); in the assay on SF-539 it was 22.2 µM (inactive); in the assay with SK-MEL-2, 16.4 µM (inactive); with SK-OV-3, 31.7 µM (inactive); with SW-620, 29.2 µM (inactive). In the assay with U-251, the GI50 is 20.3 µM (inactive).
In the case of `N#CC(c1nc2ccccc2s1)c1nc(Cl)ncc1Br` (centres undefined), the GI50 in the assay with 786-0 was 30.3 µM (inactive); with A498, > 100 µM (inactive); in the assay with ACHN, 28.2 µM (inactive); with HOP-62, 34.2 µM (inactive); in the assay with HOP-92, 18.2 µM (inactive); in the assay on HT-29, 46.5 µM (inactive). Further, the GI50 with IGROV-1 is 28.9 µM (inactive); with KM12, 40.1 µM (inactive); in the assay on MDA-N it was 36 µM (inactive); with NCI-H23 it was 23.6 µM (inactive); with OVCAR-5 it was > 100 µM (inactive); in the assay with OVCAR-8, 30.4 µM (inactive). For the same compound, the GI50 in the assay with SF-539 is 31.5 µM (inactive); with SK-OV-3, 36.1 µM (inactive); in the assay on SW-620, 42.6 µM (inactive); with U-251, 29.4 µM (inactive).
For the compound `CCCCP(CCCC)(CCCC)=C(C(=O)OC)C(C(=O)OC)=C1SC(C(=O)OC)=C(C(=O)OC)S1`, the GI50 with 786-0 is 17.8 µM (inactive); in the assay with ACHN, 22.9 µM (inactive); in the assay on HOP-62, 20.4 µM (inactive); with HT-29, 14.5 µM (inactive); in the assay with IGROV-1 it was 11.6 µM (inactive); in the assay with MCF7 it was 16.8 µM (inactive). The GI50 in the assay on NCI-H23 is 17.5 µM (inactive); in the assay with OVCAR-5, 23 µM (inactive); in the assay with OVCAR-8, 20.7 µM (inactive); in the assay with PC-3 it was 11.1 µM (inactive); in the assay with SK-MEL-2 it was 26.2 µM (inactive); with SK-OV-3, 25.8 µM (inactive). Moreover, the results for the GI50 in the assay on SW-620 and in the assay on U-251 were 23.4 µM (inactive) and 16 µM (inactive), respectively.
Turning to `O=C(CCN1CCCCC1)C(=Cc1ccccc1)C(=O)CCN1CCCCC1`, the GI50 is 7.28 µM (inactive) in the assay on 786-0; > 100 µM (inactive) with A498; 9.73 µM (inactive) in the assay on ACHN; 21.7 µM (inactive) in the assay on HL-60; > 100 µM (inactive) with HOP-62; 42.8 µM (inactive) with HOP-92. In addition, the GI50 in the assay with HT-29 was 6.68 µM (inactive); with IGROV-1, > 100 µM (inactive); with KM12, > 64.7 µM (inactive); in the assay on MCF7, 35.8 µM (inactive); in the assay with NCI-H23 it was > 59.8 µM (inactive); in the assay with OVCAR-5, > 100 µM (inactive). Further, the GI50 with OVCAR-8 was 25.1 µM (inactive); in the assay with SF-539, 49.8 µM (inactive); in the assay with SK-MEL-2, > 100 µM (inactive); with SK-OV-3 it was > 100 µM (inactive); with SW-620 it was 29.7 µM (inactive); with U-251, > 100 µM (inactive).
Regarding `CN(C)CCNC(=O)c1cccc2c(=O)c3ccccc3oc12`, the GI50 in the assay with A498 is 21.1 µM (inactive); in the assay with HL-60 it was 29.2 µM (inactive); in the assay with HOP-62, 38.5 µM (inactive); in the assay on HOP-92, 20.1 µM (inactive); with HT-29, 25.4 µM (inactive); in the assay with IGROV-1, 40.6 µM (inactive). Besides, the GI50 is 35.4 µM (inactive) with KM12; 26.7 µM (inactive) in the assay on MCF7; 35.3 µM (inactive) in the assay on NCI-H23; 24.3 µM (inactive) in the assay on OVCAR-5; 27.7 µM (inactive) with OVCAR-8; 53.3 µM (inactive) in the assay with SF-539. Besides, the GI50 with SK-MEL-2 was 35.9 µM (inactive); with SK-OV-3, 25.1 µM (inactive); in the assay on SW-620 it was 34.4 µM (inactive); with U-251, 44.4 µM (inactive).
Consider `Cc1ccccc1NC(=O)C(=O)CC(=O)C1CCOC1=O` (centres undefined), for which the GI50 in the assay with 786-0, in the assay with A498, in the assay on ACHN, with HL-60, in the assay with HOP-62 and with HOP-92 was > 100 µM (inactive) each time. Moreover, the GI50 in the assay on HT-29 was > 10 µM (inactive); in the assay on IGROV-1, > 100 µM (inactive); in the assay with KM12, > 100 µM (inactive); in the assay on NCI-H23 it was > 100 µM (inactive); with OVCAR-5, > 100 µM (inactive); in the assay on OVCAR-8, > 100 µM (inactive). For the same compound, the GI50 in the assay with SF-539, with SK-MEL-2, with SK-OV-3, with SW-620 and with U-251 was > 100 µM (inactive) throughout.
Turning to `N=C(N)NS(=O)(=O)c1ccc(NC(=O)c2cccc3c(Nc4ccc(S(=O)(=O)N=C(N)N)cc4)c4ccccc4nc23)cc1`, the GI50 is 50.9 µM (inactive) with 786-0; 47.4 µM (inactive) in the assay with A498; 51.1 µM (inactive) with ACHN; 27 µM (inactive) in the assay with HL-60; > 100 µM (inactive) in the assay on HOP-62; > 100 µM (inactive) in the assay on HOP-92. Also, the GI50 in the assay on HT-29 is 42.1 µM (inactive); in the assay with IGROV-1 it was 70.5 µM (inactive); in the assay with KM12 it was 33.4 µM (inactive); with NCI-H23 it was 44.3 µM (inactive); in the assay with OVCAR-5 it was > 100 µM (inactive); in the assay on OVCAR-8, 32.3 µM (inactive). The GI50 in the assay on SF-539 was 41.1 µM (inactive); in the assay on SK-MEL-2, > 100 µM (inactive); in the assay with SK-OV-3, 72.6 µM (inactive); with SW-620, 31.4 µM (inactive); in the assay with U-251, 28.8 µM (inactive).
On to `O=[N+]([O-])c1sc2ccc(Cl)cc2c1Nc1ccc(Cl)cc1`, for which the GI50 in the assay with 786-0, in the assay with A498, with ACHN, with HL-60, in the assay with HOP-62 and in the assay on HT-29 was > 100 µM (inactive) throughout. Moreover, the GI50 with IGROV-1, in the assay on KM12, in the assay on MCF7, in the assay on NCI-H23, in the assay with OVCAR-5 and in the assay with OVCAR-8 was > 100 µM (inactive) each time. For the same compound, the GI50 in the assay with PC-3, with SF-539, in the assay with SK-MEL-2, with SK-OV-3, in the assay on SW-620 and in the assay on U-251 was > 100 µM (inactive) each time.
`COc1ccc(NC(=S)N/N=C\c2ccc(NC(C)=O)cc2)cc1`: the GI50 is > 100 µM (inactive) in the assay on 786-0; > 100 µM (inactive) in the assay with ACHN; 41.1 µM (inactive) with HL-60; > 100 µM (inactive) with HOP-62; > 100 µM (inactive) in the assay with HOP-92; > 100 µM (inactive) in the assay with HT-29. Moreover, the GI50 with IGROV-1, with KM12, with MDA-N, in the assay with NCI-H23, in the assay on OVCAR-5 and in the assay with PC-3 was > 100 µM (inactive) each time. Besides, the GI50 in the assay with SK-MEL-2, with SK-OV-3, in the assay with SW-620 and in the assay with U-251 was > 100 µM (inactive) in each case.
